Converted amounts (≈) assume the structure as drawn.
Experiments:
Type in all cases: cell-based
[1] = tested on: S. pneumoniae ATCC 49619 (SP106); assay: Minimum inhibitory concentration assay, SP106; conditions: Streptococcus pneumoniae, ATCC49619; S. pneumoniae ATCC 49619, wt; read-out: MICs SP106
Experimental: (§1) Frozen bacterial strains were thawed and subcultured onto Mueller Hinton Broth (MHB) or other appropriate media (Streptococcus requires blood and Haemophilus requires hemin and NAD). Following incubation overnight, the strains were subcultured onto Mueller Hinton Agar and again incubated overnight. […] Isolated colonies were selected to prepare a starting inoculum equivalent to a 0.5 McFarland standard. The starting inoculum was diluted 1:125 using MHB for further use. Test compounds were prepared by dilution in sterile water to a final concentration of 5.128 mg/mL. Antibiotics (stored frozen, thawed and used within 3 hours of thawing) and compounds were further diluted to the desired working concentrations.
(§2) The assays were run as follows. Fifty μL of MHB was added to wells 2-12 of a 96-well plate. One hundred […] of appropriately diluted antibiotics was added to well 1. Fifty μL of antibiotics was removed from well 1 and added to well 2 and the contents of well 2 mixed by pipetting up and down five times. Fifty μL of the mixture in well 2 was removed and added to well 3 and mixed as above. Serial dilutions were continued in the same manner through well 12. Fifty μL was removed from well 12 so that all contained 50 μL. Fifty μL of the working inoculum was then added to all test wells. A growth control well was prepared by adding 50 μL of working inoculum and 50 μL of MHB to an empty well. The plates were then incubated at 37° C. overnight, removed from the incubator and each well was read on a plate reading mirror. The lowest concentration (MIC) of test compound that inhibited the growth of the bacteria was recorded.

[2] = tested on: S. aureus ATCC 13709 (SA100, MSSA, Smith strain); assay: Minimum inhibitory concentration assay, SA100; conditions: Staphylococcus aureus; S. aureus ATCC 13709, MSSA Smith strain; read-out: MICs SA100
Experimental: as §1, §2

[3] = tested on: K. pneumoniae ATCC 13883 (KP109); assay: Minimum inhibitory concentration assay, KP109; conditions: Klebsiella pneumoniae, ATCC13883; K. pneumoniae ATCC 13883, wt; read-out: MICs KP109
Experimental: as §1, §2

[4] = tested on: E. faecalis EF159 (tet resistant: tetM); assay: Minimum inhibitory concentration assay, EF159; conditions: Enterococcus faecalis, read-out: MICs EF159
Experimental: as §1, §2

[5] = tested on: S. pneumoniae SP160 (tet resistant: tet M); assay: Minimum inhibitory concentration assay, SP160; conditions: Streptococcus pneumoniae, read-out: MICs SP160
Experimental: as §1, §2

[6] = tested on: A. baumanii ATCC 19606 (AB110); assay: Minimum inhibitory concentration assay, AB110; conditions: Acinetobacter baumannii, ATCC19606; A. baumanii ATCC 19606, wt; read-out: MICs AB110
Experimental: as §1, §2

[7] = tested on: P. aeruginosa ATCC 27853 (PA111); assay: Minimum inhibitory concentration assay, PA111; conditions: Pseudomonas aeruginosa, ATCC27853; P. aeruginosa ATCC 27853, wt; read-out: MICs PA111
Experimental: as §1, §2

[8] = tested on: S. aureus ATCC 29213 (SA101, MSSA); assay: Minimum inhibitory concentration assay, SA101; conditions: Staphylococcus aureus; S. aureus ATCC 29213, MSSA control; read-out: MICs SA101
Experimental: as §1, §2

[9] = tested on: S. aureus SA161 (tet resistant: tet(M) ribosomal protection); assay: Minimum inhibitory concentration assay, SA161; conditions: Staphylococcus aureus, read-out: MICs SA161
Experimental: as §1, §2

[10] = tested on: E. coli ATCC 25922 (EC107); assay: Minimum inhibitory concentration assay, EC107; conditions: Escherichia coli, ATCC25922; E. coli ATCC 25922, wt; read-out: MICs EC107
Experimental: as §1, §2

[11] = tested on: S. aureus SA158 (tet resistant: tetK efflux); assay: microbe, parasite or virus in culture; conditions: Staphylococcus aureus, read-out: MICs SA158
Experimental: as §1, §2

[12] = tested on: E. coli EC155 (tet resistant: tetA efflux); assay: microbe, parasite or virus in culture; conditions: Escherichia coli; E. coli tet resistant: tetA (efflux); read-out: MICs EC155
Experimental: as §1, §2

[13] = tested on: K. pneumoniae KP153 (tet resistant: tetA efflux); assay: microbe, parasite or virus in culture; conditions: Klebsiella pneumoniae, read-out: MICs KP153
Experimental: as §1, §2

[14] = tested on: E. cloacae ATCC 13047 (EC108); assay: Minimum inhibitory concentration assay, EC108; conditions: Enterobacter cloacae, ATCC13047; E. cloacae ATCC 13047, wt; read-out: MICs EC108
Experimental: as §1, §2

[15] = tested on: E. faecalis ATCC 29212 (EF103); assay: Minimum inhibitory concentration assay, EF103; conditions: Enterococcus faecalis, ATCC29212, read-out: MICs EF103
Experimental: as §1, §2

SMILES	MIC [1]	MIC [2]	MIC [3]	MIC [4]	MIC [5]	MIC [6]	MIC [7]	MIC [8]	MIC [9]	MIC [10]	MIC [11]	MIC [12]	MIC [13]	MIC [14]	MIC [15]
COC[C@H]1CCCN1CC(=O)Nc1cc(F)c2c(c1O)C(=O)C1=C(O)[C@]3(O)C(=O)C(C(N)=O)=C(O)[C@@H](N(C)C)[C@@H]3C[C@@H]1C2 [Compound 42]	0.125 µg/mL (≈ 0.207 µM)	1 µg/mL (≈ 1.66 µM)	8 µg/mL (≈ 13.3 µM)	1 µg/mL (≈ 1.66 µM)	0.0625 µg/mL (≈ 0.104 µM)	0.5 µg/mL (≈ 0.83 µM)	> 32 µg/mL	0.5 µg/mL (≈ 0.83 µM)	2 µg/mL (≈ 3.32 µM)	4 µg/mL (≈ 6.64 µM)	1 µg/mL (≈ 1.66 µM)	16 µg/mL (≈ 26.6 µM)	16 µg/mL (≈ 26.6 µM)	16 µg/mL (≈ 26.6 µM)	0.5 µg/mL (≈ 0.83 µM)
CN(C)[C@@H]1C(O)=C(C(N)=O)C(=O)[C@@]2(O)C(O)=C3C(=O)c4c(O)c(NC(=O)CNC(C)(C)C)cc(F)c4C[C@H]3C[C@@H]12 [Compound 11]	≤ 0.0156 µg/mL	0.25 µg/mL (≈ 0.446 µM)	1 µg/mL (≈ 1.78 µM)	0.125 µg/mL (≈ 0.223 µM)	≤ 0.0156 µg/mL	0.5 µg/mL (≈ 0.892 µM)	16 µg/mL (≈ 28.5 µM)	0.125 µg/mL (≈ 0.223 µM)	0.25 µg/mL (≈ 0.446 µM)	0.25 µg/mL (≈ 0.446 µM)	0.0625 µg/mL (≈ 0.111 µM)	2 µg/mL (≈ 3.57 µM)	2 µg/mL (≈ 3.57 µM)	1 µg/mL (≈ 1.78 µM)	0.0625 µg/mL (≈ 0.111 µM)
CN(C)[C@@H]1C(O)=C(C(N)=O)C(=O)[C@@]2(O)C(O)=C3C(=O)c4c(O)c(NC(=O)CNc5ccccc5)cc(F)c4C[C@H]3C[C@@H]12 [Compound 30]	2 µg/mL (≈ 3.44 µM)	1 µg/mL (≈ 1.72 µM)	> 32 µg/mL	2 µg/mL (≈ 3.44 µM)	4 µg/mL (≈ 6.89 µM)	8 µg/mL (≈ 13.8 µM)	> 32 µg/mL	2 µg/mL (≈ 3.44 µM)	4 µg/mL (≈ 6.89 µM)	> 32 µg/mL	2 µg/mL (≈ 3.44 µM)	> 32 µg/mL	> 32 µg/mL	> 32 µg/mL	2 µg/mL (≈ 3.44 µM)
CN(C)[C@@H]1CCN(CC(=O)Nc2cc(F)c3c(c2O)C(=O)C2=C(O)[C@]4(O)C(=O)C(C(N)=O)=C(O)[C@@H](N(C)C)[C@@H]4C[C@@H]2C3)C1 [Compound 37]	2 µg/mL (≈ 3.32 µM)	8 µg/mL (≈ 13.3 µM)	> 32 µg/mL	16 µg/mL (≈ 26.6 µM)	4 µg/mL (≈ 6.65 µM)	> 32 µg/mL	> 32 µg/mL	8 µg/mL (≈ 13.3 µM)	> 32 µg/mL	> 32 µg/mL	> 32 µg/mL	> 32 µg/mL	> 32 µg/mL	> 32 µg/mL	16 µg/mL (≈ 26.6 µM)
CCN(C)CC(=O)Nc1cc(F)c2c(c1O)C(=O)C1=C(O)[C@]3(O)C(=O)C(C(N)=O)=C(O)[C@@H](N(C)C)[C@@H]3C[C@@H]1C2 [Compound 24]	≤ 0.0156 µg/mL	0.25 µg/mL (≈ 0.457 µM)	1 µg/mL (≈ 1.83 µM)	≤ 0.0156 µg/mL	≤ 0.0156 µg/mL	0.0313 µg/mL (≈ 0.0573 µM)	16 µg/mL (≈ 29.3 µM)	0.25 µg/mL (≈ 0.457 µM)	0.125 µg/mL (≈ 0.229 µM)	0.5 µg/mL (≈ 0.915 µM)	0.125 µg/mL (≈ 0.229 µM)	8 µg/mL (≈ 14.6 µM)	8 µg/mL (≈ 14.6 µM)	2 µg/mL (≈ 3.66 µM)	≤ 0.0156 µg/mL
CCCCCCNCC(=O)Nc1cc(F)c2c(c1O)C(=O)C1=C(O)[C@]3(O)C(=O)C(C(N)=O)=C(O)[C@@H](N(C)C)[C@@H]3C[C@@H]1C2 [Compound 14]	0.03 µg/mL (≈ 0.051 µM)	0.25 µg/mL (≈ 0.425 µM)	1 µg/mL (≈ 1.7 µM)	0.25 µg/mL (≈ 0.425 µM)	0.125 µg/mL (≈ 0.212 µM)	0.25 µg/mL (≈ 0.425 µM)	16 µg/mL (≈ 27.2 µM)	0.5 µg/mL (≈ 0.849 µM)	0.5 µg/mL (≈ 0.849 µM)	0.5 µg/mL (≈ 0.849 µM)	0.25 µg/mL (≈ 0.425 µM)	4 µg/mL (≈ 6.8 µM)	2 µg/mL (≈ 3.4 µM)	2 µg/mL (≈ 3.4 µM)	0.125 µg/mL (≈ 0.212 µM)
